Reference: article PMC5530816, “Anticancer metallohelices: nanomolar potency and high selectivity” (Chemical Science, 2015)

Assays:
Format in all cases: cell-based
[1] = test system: Escherichia coli, TOP10; assay: MIC by broth dilution, E. coli; settings: 20 h at 37 °C in Müller–Hinton broth
Experimental: (§1) The compounds were screened against cultures of the gram-positive bacterium methicillin-resistant Staphylococcus aureus, USA300 JE2 ([ref. 28 and 29]) (MRSA) and the gram-negative Escherichia coli, TOP10 (E. coli).[30] Kanamycin[30] was used as a positive control.
(§2) MIC values were established using a […] broth dilution method in cation-adjusted Müller–Hinton (MH) broth. 96-well plates (200 μL of 128 μg mL^–1, 64 μM) complex in MH broth, diluted 2^n μg mL^–1, inoculated with each bacterial strain (10^3 cfu mL^–1) were sealed and growth was monitored over 20 h at 37 °C with an iEMS 96-well plate reader (see ESI ^†).

[2] = test system: methicillin-resistant Staphylococcus aureus, USA300 JE2; assay: MIC by broth dilution, MRSA; settings: 20 h at 37 °C in Müller–Hinton broth
Experimental: as §1, §2

[3] = test system: HCT116 p53^–/– (human colon carcinoma, p53-null); assay: MTT chemosensitivity (IC50), HCT116 p53-/- cells; settings: 96 h exposure, triplicate, mean with standard deviation (esd)
Excerpt: (§3) The activities of the new compounds and cisplatin were investigated in human tumour cell lines: (a) MDA-MB-468 (human epithelial breast adenocarcinoma);[24] (b) HCT116 p53^+/+ and (c) HCT116 p53^–/–.[25] The HCT116 p53^+/+ and HCT116 p53^–/– cancer cells are human colorectal cancer cell lines that are genetically identical (isogenic) except for the presence or absence of functional p53.[25] These were chosen to enable screening of the effects of p53 status as the loss of p53 function is common genetic event in patient tumours and is strongly associated with increased resistance to many conventional chemotherapeutic agents.[25],[26]
(§4) Compounds were added (100 μM to 5 nM in cell medium) for a further 96 h. 3-(4,5-Dimethylthiazol-[…])-2,5-diphenyl tetrazolium bromide solution (0.5 mg mL^–1, 20 μL per well) was added for a final 4 h. Upon completion all solutions were aspirated, dimethyl sulfoxide (150 μl) was added and absorbance (540 nm) was recorded with a Thermo Scientific Multiskan EX microplate photometer. […]
(§5) 0 ×10 3 c el l s / wel l and i nc u bat ed f or24 hat 37 ° C i n an at mos p h er e of5% C O2, p r i ort o d r u gexp os u r e. […]
(§6) C ell med ia (20 0 μ l) was ad d ed to the referenc e c ells and d iffering c onc entrations of d ru g s olu tion (20 0 μ l) were ad d ed to the remaining wells . […]

[4] = test system: MDA-MB-468 (human epithelial breast adenocarcinoma); assay: MTT chemosensitivity (IC50), MDA-MB-468 cells; settings: 96 h exposure, triplicate, mean with standard deviation (esd)
Excerpt: as §3, §4, §5, §6

[5] = test system: HCT116 p53^+/+ (human colon carcinoma, wild type p53); assay: MTT chemosensitivity (IC50), HCT116 p53+/+ cells; settings: 96 h exposure, triplicate, mean with standard deviation (esd)
Excerpt: as §3, §4, §5, §6

[6] = approximate concentration in μM

SMILES	E. coli MIC [1] [μg ml^–1]	E. coli MIC [1, 6] [µM]	MRSA MIC [2] [μg ml^–1]	MRSA MIC [2, 6] [µM]	IC50 [3] [µM]	IC50 [4] [nM]	IC50 [5] [µM]
NC[C@H]1O[C@H](O[C@H]2[C@H](O)[C@@H](O[C@H]3O[C@H](CO)[C@@H](O)[C@H](N)[C@H]3O)[C@H](N)C[C@@H]2N)[C@H](O)[C@@H](O)[C@@H]1O [Kanamycin]	2	4	1	2			
N.N.[Cl][Pt][Cl] [cisplatin]					8.1 ± 1.8	2500 ± 500	3.5 ± 1.5
